Assay results reported in paper PMC11123841, “Discovery and Synthesis of Hydroxy-L-Proline Blockers of the Neutral Amino Acid Transporters SLC1A4 (ASCT1) and SLC1A5 (ASCT2)” (Molecules, 2024).
“Also recorded” adds a separate entry of the source.

Key:
SLC38A2 (ATA2) = target: T1, SLC38A2 (ATA2) (Homo sapiens, UniProt Q96QD8); assay: TEVC electrogenic coupled currents in oocytes; assay type: cell-based; conditions: 100 µM L-alanine, 3 µM BPOHP
T1 construct: expressed in transfected cells; host or cells: Xenopus laevis oocytes (cRNA injection)
T1 sequence (Q96QD8 1-506): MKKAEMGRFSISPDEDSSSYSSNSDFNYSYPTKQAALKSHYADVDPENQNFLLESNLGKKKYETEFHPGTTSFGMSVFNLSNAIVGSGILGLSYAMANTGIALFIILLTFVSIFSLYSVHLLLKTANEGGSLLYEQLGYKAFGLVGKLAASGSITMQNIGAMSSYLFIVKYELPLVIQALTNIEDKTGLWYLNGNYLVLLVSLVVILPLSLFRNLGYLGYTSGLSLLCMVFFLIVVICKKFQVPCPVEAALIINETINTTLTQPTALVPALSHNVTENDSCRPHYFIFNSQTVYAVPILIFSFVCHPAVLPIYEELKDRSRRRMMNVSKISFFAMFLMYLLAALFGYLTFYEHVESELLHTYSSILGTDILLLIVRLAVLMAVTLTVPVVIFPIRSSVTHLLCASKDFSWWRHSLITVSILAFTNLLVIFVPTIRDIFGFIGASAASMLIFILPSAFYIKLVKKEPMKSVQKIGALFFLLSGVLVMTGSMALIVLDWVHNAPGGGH
Experimental: Additionally, 4-HP applied at 1 mM was used to assess activity at the glutamate transporters SLC1A3 or SLC1A1.
(§1) BPOHP activity was evaluated against the glutamate transporters paralogs within the SLC1A gene family (SLC1A 1–3) as well as at neutral amino acid transporters that share common ligand substrates with the SLC1 family including SLC38A1,2, and 4 (ATA1, ATA2, ATA3) and heteromeric transporters SLC7A10+SLC3A2 (asc-1/4f2).
(§2) Uptake was halted by washing 3 times with 4 °C ND96 buffer. Oocytes were then lysed in 0.1% Triton X-100, and radioactivity was counted via liquid scintillation. Dose response curves were generated by fitting fractional inhibition (I) to the expression I = Imax × [inhibitor]/([inhibitor] + IC50).
(§3) Two-electrode voltage clamp (TEVC) transporter currents were recorded with a GeneClamp 500 amplifier and Digidata 1320A analog–digital interface (Molecular Devices, San Jose, CA, USA). […] Data were acquired with Axograph (v1.7.6) and LabChart (v7) and analyzed with Kaleidagraph software (v4.1) (Synergy, Reading, PA, USA). Uncoupled anion currents associated with the transport of substrate and block of SLC1A4 or SLC1A5 mediated leak conductance were recorded in the presence of Ringer with 50% substitution of NaCl by NaSCN to amplify the non-transported anion conductance. […]

SLC38A1 (ATA1) = target: T2, SLC38A1 (ATA1) (Homo sapiens, UniProt Q9H2H9); assay: TEVC electrogenic coupled currents in oocytes; assay type: cell-based; conditions: 100 µM L-alanine, 3 µM BPOHP
T2 construct: expressed in transfected cells; host or cells: Xenopus laevis oocytes (cRNA injection)
T2 sequence (Q9H2H9 1-487): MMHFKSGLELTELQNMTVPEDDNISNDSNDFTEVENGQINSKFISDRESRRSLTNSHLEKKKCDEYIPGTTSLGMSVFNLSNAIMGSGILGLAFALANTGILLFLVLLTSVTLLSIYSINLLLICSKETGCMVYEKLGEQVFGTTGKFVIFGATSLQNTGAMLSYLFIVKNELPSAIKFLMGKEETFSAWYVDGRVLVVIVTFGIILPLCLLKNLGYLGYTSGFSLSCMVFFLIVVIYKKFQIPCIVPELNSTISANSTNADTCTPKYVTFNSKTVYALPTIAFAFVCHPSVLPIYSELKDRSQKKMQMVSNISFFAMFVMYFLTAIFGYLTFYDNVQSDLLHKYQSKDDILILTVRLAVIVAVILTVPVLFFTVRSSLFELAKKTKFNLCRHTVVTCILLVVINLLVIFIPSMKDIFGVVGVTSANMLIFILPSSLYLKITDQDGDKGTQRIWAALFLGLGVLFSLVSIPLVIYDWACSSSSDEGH
Experimental: as §1, with “(asc-1/4f2). […] Finally, radiolabeled [^3H]D-serine uptake was used to assess the electroneutral SLC7A10+SLC3A2 transporter, in which 10 µM BPOHP had no effect (Figure S3).” for “(asc-1/4f2).”
as §2, §3

O=C(O)[C@H]1NC[C@@H](OCc2ccc(-c3ccccc3)cc2)[C@@H]1O [14e]
block of L-alanine current (SLC38A2 (ATA2)): no effect; also recorded: no discernible block; also recorded: no inhibition was detected | block of L-alanine current (SLC38A1 (ATA1)): no effect; also recorded: no discernible block; also recorded: no inhibition was detected
